Laboratory results as given in patent US4731109A, “Herbicidal 2-haloacetanilides” (Monsanto Company, priority 1982, dated 1988).

What was measured:
Quackgrass [1] = assay: Greenhouse pre-emergence GR15/GR85 selectivity test; assay type: in vivo
From the text: (§1) A good grade of top soil is placed in aluminum pans and compacted to a depth of three-eighths to one-half inch from the top of the pan. On the top of the soil is placed a number of seeds or vegetative propagules of various plant species. The soil required to level fill the pans after seeding or adding vegetative propagules is weighed into a pan. The soil and a known amount of the active ingredient applied in a solvent or as a wettable powder suspension are thoroughly mixed, and used to cover the prepared pans. […] As an alternative procedure, the overhead irrigation may be omitted. Observations are made about 2-3 weeks after seeding and treatment.
(§2) A further guide to the effectiveness of a chemical as a selective herbicide is the "selectivity factor" ("SF") for a herbicide in given crops and weeds. The selectivity factor is a measure of the relative degree of crop safety and weed injury and is expressed in terms of the GR15 /GR85 ratio, i.e., the GR15 rate for the crop divided by the GR85 rate for the weed, both rates in kg/ha (lb/A). In the tables below, selectivity factors are shown in parenthesis following the GR85 rate for each weed; the symbol "NS" indicates "non-selective". Marginal or undetermined selectivity is indicated by a dash (--).
(§3) These weeds are commonly associated with such major crops as corn and soybeans. […] The test procedure was the same as described for Tables II and III but modified by the application of an initial overhead irrigation equivalent to 1/4" (0.64 cm) rainfall; subsequent watering was accomplished by subirrigation. "NS" means non-selective within the test limits.
(§4) Unless otherwise noted; greenhouse tests in Table VI and in other tables below involved herbicide treatments by soil incorporation and an initial overhead irrigation followed by subirrigation as described above.

Yellow Nutsedge = assay: as above; assay type: in vivo
From the text: as §1, §2, §3, §4

corn = assay: as above; assay type: in vivo
From the text: (§5) A good grade of top soil is placed in aluminum pans and compacted to a depth of three-eighths to one-half inch from the top of the pan. On the top of the soil is placed a number of seeds or vegetative propagules of various plant species. The soil required to level fill the pans after seeding or adding vegetative propagules is weighed into a pan. The soil and a known amount of the active ingredient applied in a solvent or as a wettable powder suspension are thoroughly mixed, and used to cover the prepared pans. After treatment, the pans are given an initial overhead irrigation of eater, equivalent to one-fourth inch (0.64 cm) rainfall, then watered by subirrigation as need to give adequate moisture for germination and growth. As an alternative procedure, the overhead irrigation may be omitted. Observations are made about 2-3 weeks after seeding and treatment.
(§6) In the discussion and tables of data below, reference is made to herbicide application rates symbolized as "GR15 " and "GR85 "; these rates are given in kilograms per hectare (kg/ha) which are convertible into pounds per acre (lbs/A) by dividing the kg/ha rate by 1.12.
as §2
In Table IV pre-emergence herbicidal activity data are presented comparing the relative efficacy of the invention compounds and said prior art compounds as selective herbicides against the resistant and troublesome perennial weeds quackgrass and yellow nutsedge in soybeans and corn, respectively. These weeds are commonly associated with such major crops as corn and soybeans. The test data in Table IV were obtained under identical procedural conditions and represent two replicate runs (except for the compound of Example 9 which was present in one comparative test). The test procedure was the same as described for Tables II and III but modified by the application of an initial overhead irrigation equivalent to 1/4" (0.64 cm) rainfall; subsequent watering was accomplished by subirrigation. "NS" means non-selective within the test limits.
(§7) Additionally, pre-emergence herbicidal data from other tests have established that compounds according to this invention also selectively suppress quackgrass, yellow nutsedge and/or other weeds in one or more of the crops cotton, peanuts, bush beans and/or rape. For example, in Table VI are presented data showing the herbicidal selectivity of the compounds of Examples 1 and 2 against quackgrass in rape and snap beans. Unless otherwise noted; greenhouse tests in Table VI and in other tables below involved herbicide treatments by soil incorporation and an initial overhead irrigation followed by subirrigation as described above.

rape = assay: as above; assay type: in vivo
From the text: as §5, §6, §2, §7
(§8) In another greenhouse test, the compounds of Examples 3-5, 9 and 10 were tested for their herbicidal efficacy against a variety of resistant annual and perennial weeds in rape.

purple nutsedge = assay: as above; assay type: in vivo; settings: Table XV; for selectivity factor (GR15/GR85): in rape
From the text: as §5, §6, §2, §7
In other greenhouse tests, compounds according to this invention have shown selective control of a variety of annual and perennial weeds in various crops. As further illustrative, the compound of Example 1 selectively controlled purple nutsedge in both corn nd soybeans, the respective crop/weed GR15 /GR85 ratios (expressed in kg/ha) being 0.67/0.25 (S.F.=2.7) in corn and 1.1/0.25 (S.F.=4.5) in soybeans. The compound of Example 8 has shown selective control of yellow nutsedge and quackgrass in corn and soybeans. The respective crop/yellownutsedge GR15 /GR85 ratios being >2.2/0.95 (S.F.=2.5) in corn; 2.2/0.5 (SF=4.5) in soybeans and the respective GR15 /GR85 ratios for both corn and soybeans in quackgrass being >2.2/0.5 (S.F.=4.5). In a test against yellow nutsedge in cotton, the GR15 /GR85 ratio (average of two replicates) was 2.0/0.95 (S.F.=2).
as §8

fall panicum = assay: as above; assay type: in vivo
From the text: as §1, §2, §4

wild proso millet = assay: as above; assay type: in vivo, wild proso millet (panicum milicaeum)
From the text: as §1, §2, §4

Quackgrass [2] = assay: Herbicidal effect in a variety of soil types; assay type: in vivo; settings: for selectivity factor (GR15/GR85): in soybeans
soybeans = assay: Herbicidal effect in a variety of soil types; assay type: in vivo
[3] = Drummer silty clay, Table XVII B
[4] = Wabash silty clay, Table XVII B
[5] = Drummer silty clay, Table XVII A

For `CCCOCN(C(=O)CCl)c1c(CC)cccc1C(F)(F)F` [Example 10, N--(n-propoxymethyl)-2'-trifluoromethyl-6'-ethyl-2-chloroacetanilide], the GR85 (Quackgrass [1]; Table XIII) was 0.45 Kg/Ha, the “selectivity against quackgrass in wheat” value (Quackgrass [1]; in wheat) was “non-selective” and the “selectivity factor (GR15/GR85)” value (Quackgrass [1]; quackgrass in corn, Table XIII) was 5.6. For the same compound, the “selectivity factor (GR15/GR85)” value (Quackgrass [1]; quackgrass in soybeans, Table XIII) was 3.3, the GR85 (Yellow Nutsedge; Table XII) was 0.38 Kg/Ha and the “selectivity with respect to yellow nutsedge in rice” value (Yellow Nutsedge; in rice) was “non-selective”. For the same compound, the “selectivity factor (GR15/GR85)” value (Yellow Nutsedge; yellow nutsedge in corn, Table XII) was 4.5, the “selectivity factor (GR15/GR85)” value (Yellow Nutsedge; yellow nutsedge in cotton, Table XII) was 7.4 and the “selectivity factor (GR15/GR85)” value (Yellow Nutsedge; yellow nutsedge in soybeans, Table XII) was 5.8. The GR15 (corn; Table XII) was 1.7 Kg/Ha, the GR15 (corn; Table XIII) was 2.5 Kg/Ha and the “GR15 Rate” value (rape; Table XV) was greater than 1.12 Kg/Ha. The “GR85 Rate” value (purple nutsedge) was 0.18 Kg/Ha, the “selectivity factor (GR15/GR85)” value (purple nutsedge) was greater than 6.2 and the “GR85 Rate” value (fall panicum; Table XVI) was 0.22 Kg/Ha. For the same compound, the “selectivity factor (GR15/GR85)” value (fall panicum; in lima beans, Table XVI) was greater than 5.1, the “selectivity factor (GR15/GR85)” value (fall panicum; in peanuts, Table XVI) was 4.5 and the “GR85 Rate” value (wild proso millet; Table XVI) was 0.80 Kg/Ha. The “selectivity factor (GR15/GR85)” value (wild proso millet; in lima beans, Table XVI) was greater than 1.4 and the “selectivity factor (GR15/GR85)” value (wild proso millet; in peanuts, Table XVI) was 1.2.

With `Cc1cccc(C(F)(F)F)c1N(COCC(C)C)C(=O)CCl` [Example 5, N--(isobutoxymethyl)-2'-trifluoromethyl-6'-methyl-2-chloroacetanilide] the “GR15 Rate” value (rape; Table XV) was greater than 1.12 Kg/Ha, the “GR85 Rate” value (purple nutsedge) was 0.23 Kg/Ha and the “selectivity factor (GR15/GR85)” value (purple nutsedge) was greater than 4.9. The “GR85 Rate” value (fall panicum; Table XVI) was 0.28 Kg/Ha, the “selectivity factor (GR15/GR85)” value (fall panicum; in lima beans, Table XVI) was greater than 4 and the “selectivity factor (GR15/GR85)” value (fall panicum; in peanuts, Table XVI) was 2. The “GR85 Rate” value (wild proso millet; Table XVI) was 0.56 Kg/Ha, the “selectivity factor (GR15/GR85)” value (wild proso millet; in lima beans, Table XVI) was greater than 2 and the “selectivity factor (GR15/GR85)” value (wild proso millet; in peanuts, Table XVI) was 1. It also gave a GR85 (Quackgrass [2]; [3]) of 1.1 Kg/Ha, a GR85 (Quackgrass [2]; Florida muck, Table XVII B) of 3.0 Kg/Ha and a GR85 (Quackgrass [2]; Florida sand, Table XVII B) of 1.1 Kg/Ha. The GR85 (Quackgrass [2]; Ray silt loam, Table XVII B) was greater than 2.2 Kg/Ha, the GR85 (Quackgrass [2]; Sarpy silty clay, Table XVII B) was 1.6 Kg/Ha and the GR85 (Quackgrass [2]; [4]) was 1.6 Kg/Ha. The “selectivity factor (GR15/GR85)” value (Quackgrass [2]; [3]) was 2, the “selectivity factor (GR15/GR85)” value (Quackgrass [2]; Florida sand, Table XVII B) was 3 and the “selectivity factor (GR15/GR85)” value (Quackgrass [2]; Ray silt loam, Table XVII B) was “NS (non-selective)”. For the same compound, the “selectivity factor (GR15/GR85)” value (Quackgrass [2]; Sarpy silty clay, Table XVII B) was 2, the “selectivity factor (GR15/GR85)” value (Quackgrass [2]; [4]) was 1.5 and the GR15 (soybeans; [3]) was 2.2 Kg/Ha. The GR15 (soybeans; Florida muck, Table XVII B) was greater than 2.0 Kg/Ha, the GR15 (soybeans; Florida sand, Table XVII B) was 3.0 Kg/Ha and the GR15 (soybeans; Ray silt loam, Table XVII B) was 2.0 Kg/Ha. It also gave a GR15 (soybeans; Sarpy silty clay, Table XVII B) of 3.0 Kg/Ha and a GR15 (soybeans; [4]) of 2.2 Kg/Ha.

`CC(C)OCN(C(=O)CCl)c1ccccc1C(F)(F)F` [Example 2, N--(isopropoxymethyl)-2'-trifluoromethyl-2-chloroacetanilide] was tested, and the GR85 (Quackgrass [1]; Table IV, Replicate #1) was 0.26 Kg/Ha, the GR85 (Quackgrass [1]; Table IV, Replicate #2) was 0.22 Kg/Ha and the “GR85 Rate” value (Quackgrass [1]; Table VI) was 0.28 Kg/Ha. The “selectivity factor (GR15/GR85)” value (Quackgrass [1]; quackgrass in corn, Table IV, Replicate #1) was 12, the “selectivity factor (GR15/GR85)” value (Quackgrass [1]; quackgrass in corn, Table IV, Replicate #2) was 3.5 and the “selectivity factor (GR15/GR85)” value (Quackgrass [1]; quackgrass in rape, Table VI) was 7. For the same compound, the “selectivity factor (GR15/GR85)” value (Quackgrass [1]; quackgrass in snapbeans, Table VI) was 8, the “selectivity factor (GR15/GR85)” value (Quackgrass [1]; quackgrass in soybeans, Table IV, Replicate #1) was 6.5 and the “selectivity factor (GR15/GR85)” value (Quackgrass [1]; quackgrass in soybeans, Table IV, Replicate #2) was 7.5. The GR85 (Yellow Nutsedge; Table IV, Replicate #1) was 0.17 Kg/Ha, the GR85 (Yellow Nutsedge; Table IV, Replicate #2) was 0.20 Kg/Ha and the “selectivity factor (GR15/GR85)” value (Yellow Nutsedge; yellow nutsedge in corn, Table IV, Replicate #1) was 18. For the same compound, the “selectivity factor (GR15/GR85)” value (Yellow Nutsedge; yellow nutsedge in corn, Table IV, Replicate #2) was 4, the “selectivity factor (GR15/GR85)” value (Yellow Nutsedge; yellow nutsedge in soybeans, Table IV, Replicate #1) was 10 and the “selectivity factor (GR15/GR85)” value (Yellow Nutsedge; yellow nutsedge in soybeans, Table IV, Replicate #2) was 8.5. The GR15 (corn; Table IV, Replicate #1) was 3.1 Kg/Ha, the GR15 (corn; Table IV, Replicate #2) was 0.78 Kg/Ha and the “GR15 Rate” value (rape; Table VI) was 1.9 Kg/Ha. For the same compound, the “GR85 Rate” value (fall panicum; Table XIV) was less than 0.07 Kg/Ha, the “selectivity factor (GR15/GR85)” value (fall panicum; in soybeans, Table XIV) was greater than 16 and the “GR85 Rate” value (wild proso millet; Table XIV) was 1.1 Kg/Ha. The “selectivity factor (GR15/GR85)” value (wild proso millet; in soybeans, Table XIV) was greater than 1.0, the GR85 (Quackgrass [2]; [5]) was 0.56 Kg/Ha and the GR85 (Quackgrass [2]; Florida muck, Table XVII A) was 0.95 Kg/Ha. It also gave a GR85 (Quackgrass [2]; Florida sand, Table XVII A) of 0.22 Kg/Ha, a GR85 (Quackgrass [2]; Ray silt loam, Table XVII A) of 0.28 Kg/Ha and a GR85 (Quackgrass [2]; Sarpy silty clay, Table XVII A) of 0.43 Kg/Ha. For the same compound, the GR85 (Quackgrass [2]; Wabash silty clay, Table XVII A) was 0.34 Kg/Ha, the “selectivity factor (GR15/GR85)” value (Quackgrass [2]; [5]) was greater than 4 and the “selectivity factor (GR15/GR85)” value (Quackgrass [2]; Florida muck, Table XVII A) was greater than 2. For the same compound, the “selectivity factor (GR15/GR85)” value (Quackgrass [2]; Florida sand, Table XVII A) was 7.5, the “selectivity factor (GR15/GR85)” value (Quackgrass [2]; Ray silt loam, Table XVII A) was 8 and the “selectivity factor (GR15/GR85)” value (Quackgrass [2]; Sarpy silty clay, Table XVII A) was greater than 5. It also gave a GR15 (soybeans; [5]) greater than 2.2 Kg/Ha, a GR15 (soybeans; Florida muck, Table XVII A) greater than 2.2 Kg/Ha and a GR15 (soybeans; Florida sand, Table XVII A) of 1.7 Kg/Ha. The GR15 (soybeans; Ray silt loam, Table XVII A) was 2.2 Kg/Ha and the GR15 (soybeans; Sarpy silty clay, Table XVII A) was greater than 2.2 Kg/Ha.
